Source: article PMC10287566, “Signaling-specific inhibition of the CB1 receptor for cannabis use disorder: phase 1 and phase 2a randomized trials” (Nature Medicine, 2023)
Where two headings read alike, the source gives them in different places.

Columns and labels:
[1] = Plasma and brain pharmacokinetics of oral AEF0117 in mice; type: in vivo; settings: mouse; for Kp: brain/plasma
Protocol: Blood samples were centrifuged within 15 min after collection (~7 min at 1,600g and 4 °C) to obtain plasma. The brain was also harvested, weighed and frozen on dry ice. Plasma and brains were stored below −70 °C until analysis.

[2] = Plasma pharmacokinetics/toxicokinetics in dogs (oral and i.v.); type: in vivo; settings: both sexes, Beagle, dog; for bioavailability: ratio of AUC per os and i.v.
Protocol: For both conditions, animals were fasted overnight before dosing and up to approximately 2 h afterwards. […] Blood samples were drawn from the cephalic or jugular veins at the following timepoints: before dose and then at 0.125 h (7.5 min), 0.25 h, 0.5 h, 1 h, 2 h, 4 h, 6 h, 8 h, 10 h, 24 h and 48 h after dosing.
Blood samples were immediately cooled on ice. Plasma was prepared by centrifugation for 7 min at 1,600g under refrigeration (4 ± 2 °C), performed within 15 min at maximum after blood sampling. Plasma was divided into two polypropylene tubes containing at least 500 µl and then stored frozen (≤−70 °C) until assay.
For all studies in rats and the 91-d toxicity study in dogs, the timepoints on days 1, 28 and 91 were: before dose and 1, 3, 5, 8 and 24 h after dose. For the 28-d toxicity study in dogs, the timepoints on days 1 and 28 were: before dose and 1, 2, 4, 8, and 24 h after dose. In both species, only mean pre-dose plasma concentrations were calculated on day 14 for the 28-d study and on day 28 for the 91-d study. For the experiments in rats, blood samples for drug analysis were taken from the satellite animals used for the toxicokinetic (TK) analysis (n = 3 per sex per timepoint and per group). For experiments performed in dogs, blood samples were drawn from the cephalic or jugular veins of all animals (n = 3 per sex per group).
TK analysis was performed separately per sex on mean concentrations by a non-compartmental analysis (NCA). The linearity of exposure was evaluated by comparison of the AUC/dose and Cmax/dose ratios. Possible accumulation was evaluated from the ratio of AUC on day 28 and on day 1 for each dose level and each sex. Samples lower than the limit of quantification (LLQ) values (that is, < 8.00 ng ml^−1 in rats and <20.0 ng ml^−1 in dogs) were not included in the calculation of TK parameters.

[3] = system: squirrel monkeys; assay: i.v. self-administration of THC in squirrel monkeys; type: in vivo, Saimiri sciureus
From the text: Two experimental models were used: (1) THC i.v. self-administration and (2) THC-induced reinstatement of THC seeking. These two approaches were used to model the maintenance of daily cannabis use and cannabis seeking after a period of abstinence.
For the self-administration experiments, four male squirrel monkeys (800–1,100 g; the estimated age was 17 years for three monkeys and 14 years for the fourth one) were used because this species reliably self-administers i.v. THC. Monkeys were trained to lever press for an i.v. injection of THC (4 µg kg^–1 per injection) under a 10-response fixed ratio schedule of drug injection (FR10; each 10th response on the lever produced an injection of THC, followed by a 60-s timeout). Number of lever presses and number of injections per session were recorded.

[4] = system: mice; assay: THC-induced decrease in social interaction; type: in vivo
[5] = system: healthy volunteers; type: in vivo, human; settings: SAD
Protocol: Participants were admitted to the research clinic at midday before dosing (day −1). In the SAD study, they remained in-house until day 8 for PK and PD samples and safety assessments. In the MAD study, participants remained in-house until day 14 and returned to the research facility on an outpatient basis to have PK and safety assessments at 216 h and 264 h (day 16 and day 18) after their last dose (day 7). Safety monitoring (physical examinations, vital sign measurements, 12-lead ECGs, clinical safety laboratory tests and AE monitoring) were performed throughout the studies. Psychometrics tests (Bond & Lader VAS, Addiction Research Center Inventory (49-item short form) (ARCI-49) and Profile of Mood States 65 self-report items (POMS-65)) and the Columbia-Suicide Severity Rating Scale (C-SSRS) test were performed at baseline, before dose and at 4 h and 24 h after dose on day 1 and day 7 (MAD study, only) and C-SSRS only at 24 h.

[6] = system: CYP and phase II enzymes; assay: Drug metabolic pathways (CYP and phase II enzymes), metabolites; type: in vitro ADME
[7] = Exposure at the highest dose tested in animals without toxicity; type: in vivo; settings: human, plasma; exposure limit for humans
Protocol: The planned dose-escalation schema for the SAD study was based on preclinical pharmacodynamics (PD), safety and toxicology data translated to humans using body surface ratios to ensure a large safety margin. For the MAD study, safety and PK data from the SAD study were used to determine doses. In both studies, all safety data for a given cohort/dose level were evaluated by a Data Safety Monitoring Board that was guided by predefined stopping criteria. The stopping criteria were based on the seriousness and severity combined with frequency of AEs that would lead to either not proceeding to the next dose level or stopping the trial. Dose escalation was also to be halted if the peak plasma levels exceeded that corresponding to the NOAEL in the most sensitive animal species (that is, the rat) in preclinical toxicology studies.

[8] = target: human CB1 (Homo sapiens, UniProt P21554); assay: [3H]CP55,940 equilibrium binding, HEK293-hCB1 cell membranes; design: 3x hemagglutinin (3HA) (N); expressed in transfected cells; membrane preparation; settings: up to 10 µM
human CB1, sequence (P21554 whole entry): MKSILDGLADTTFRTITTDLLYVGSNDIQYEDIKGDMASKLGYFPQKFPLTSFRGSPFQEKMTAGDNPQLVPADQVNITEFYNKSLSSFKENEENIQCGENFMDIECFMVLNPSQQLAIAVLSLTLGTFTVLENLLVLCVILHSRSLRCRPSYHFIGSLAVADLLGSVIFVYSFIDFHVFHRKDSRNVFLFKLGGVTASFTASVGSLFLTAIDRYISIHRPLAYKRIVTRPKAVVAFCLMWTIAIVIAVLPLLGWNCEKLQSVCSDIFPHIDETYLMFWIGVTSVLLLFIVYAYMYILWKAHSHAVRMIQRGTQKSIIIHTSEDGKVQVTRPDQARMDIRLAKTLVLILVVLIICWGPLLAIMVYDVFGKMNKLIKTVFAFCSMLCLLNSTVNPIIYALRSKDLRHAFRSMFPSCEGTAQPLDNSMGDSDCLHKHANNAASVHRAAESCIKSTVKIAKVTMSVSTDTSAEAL

[9] = both sexes, CD-1 Swiss, plasma, mice po 0.3 mg/kg single
[10] = both sexes, CD-1 Swiss, plasma, mice po 4 mg/kg single
[11] = both sexes, CD-1 Swiss, plasma, mice po 10 mg/kg single
[12] = iv, 0.7 mg/kg, dogs i.v. 0.7 mg/kg
[13] = po, 0.7 mg/kg, dogs po 0.7 mg/kg single
[14] = po, 2 mg/kg, dogs po 2 mg/kg single, 91-day tox study
[15] = po, 2 mg/kg, dogs po 2 mg/kg theoretical (approx. 0.5 mg/kg received), 28-day tox study
[16] = po, 9 mg/kg, dogs po 9 mg/kg single, 28-day tox study
[17] = po, 20 mg/kg, dogs po 20 mg/kg single, 91-day tox study
[18] = po, 36 mg/kg, dogs po 36 mg/kg single, 28-day tox study
[19] = po, 65 mg/kg, dogs po 65 mg/kg single, 91-day tox study
[20] = Impairment of social interaction

COc1ccc(CO[C@H]2CC[C@@]3(C)C(=CC[C@H]4[C@@H]5CC[C@H](C(C)=O)[C@@]5(C)CC[C@@H]43)C2)cc1 [AEF0117, 3β-(4-methoxybenzyloxy)pregn-5-en-20-one]
Tmax ([1]; CD-1 Swiss (mice), Sprague Dawley (rats), brain, oral, mice and rats, read-out: tmax in the brain): 7 h | Kp ([1]; CD-1 Swiss (mice), Sprague Dawley (rats), po, mice and rats, oral, corn oil, read-out: brain/plasma concentration AUC ratio): > 4 | Tmax ([1]; CD-1 Swiss (mice), Sprague Dawley (rats), Beagle (dogs), plasma, po, mice, rats and dogs, single per os, read-out: tmax): ~3 h | Kp ([1]; both sexes, CD-1 Swiss, oral, 0.3 mg/kg, read-out: AUClast brain/plasma ratio): 7.3 | half-life ([1]; both sexes, CD-1 Swiss, plasma, po, mice per os, read-out: half-life): 606 to 1540 min | AUC(0-t) [1, 9]: 252 ng·h/mL | Cmax [1, 9]: 35.5 ng/mL | Tmax ([1]; both sexes, CD-1 Swiss, plasma, mice po 0.3 mg/kg single, read-out: tmax): 2.5 h | half-life ([1]; both sexes, CD-1 Swiss, plasma, mice po 0.3 mg/kg single, read-out: t½ (converted)): 1070 min | AUC(0-t) [1, 10]: 3730 ng·h/mL | Cmax [1, 10]: 490 ng/mL | Tmax ([1]; both sexes, CD-1 Swiss, plasma, mice po 4 mg/kg single, read-out: tmax): 2.25 h | half-life ([1]; both sexes, CD-1 Swiss, plasma, mice po 4 mg/kg single, read-out: t½ (converted)): 1100 min | AUC(0-t) [1, 11]: 11300 ng·h/mL | Cmax [1, 11]: 1790 ng/mL | Tmax ([1]; both sexes, CD-1 Swiss, plasma, mice po 10 mg/kg single, read-out: tmax): 2.25 h | half-life ([1]; both sexes, CD-1 Swiss, plasma, mice po 10 mg/kg single, read-out: t½ (converted)): 1090 min | Tmax ([1]; both sexes, CD-1 Swiss, plasma, mice, oral, corn oil, read-out: Tmax): 3 h | Tmax ([2]; dogs po 0.7 mg/kg single): 2.67 h | Tmax ([2]; dogs po 2 mg/kg theoretical (approx. 0.5 mg/kg received), 28-day tox study): 4 h | Tmax ([2]; dogs po 9 mg/kg single, 28-day tox study): 6 h | Tmax ([2]; dogs po 20 mg/kg single, 91-day tox study): 4 h | Tmax ([2]; dogs po 36 mg/kg single, 28-day tox study): 4 h | Tmax ([2]; dogs po 65 mg/kg single, 91-day tox study): 4 h | half-life ([2]; dogs, read-out: terminal half-life (converted)): 2150 min | AUC(0-t) [2, 12]: 2190 ng·h/mL | Cmax [2, 12]: 505 ng/mL | half-life ([2]; iv, 0.7 mg/kg, dogs i.v. 0.7 mg/kg, manual linear regression of last three points, read-out: t½ (converted)): 2150 min | half-life ([2]; iv, 0.7 mg/kg, dogs iv, read-out: half-life): 2010 to 2290 min | Tmax ([2]; iv, dogs i.v. 0.7 mg/kg): 0.125 h | bioavailability ([2]; oral, 0.7 mg kg^−1, dogs): ~68% | AUC(0-t) [2, 13]: 1450 ng·h/mL | Cmax [2, 13]: 138 ng/mL | half-life ([2]; po, 0.7 mg/kg, dogs po 0.7 mg/kg, manual linear regression of last three points, read-out: t½ (converted)): 1680 min | bioavailability ([2]; po, 0.7 mg/kg, dogs): 68% | AUC(0-t) [2, 14]: 2910 ng·h/mL | Cmax [2, 14]: 241 ng/mL | AUC(0-t) [2, 15]: 1020 ng·h/mL | Cmax [2, 15]: 95 ng/mL | AUC(0-t) [2, 16]: 18500 ng·h/mL | Cmax [2, 16]: 1200 ng/mL | AUC(0-t) [2, 17]: 26500 ng·h/mL | Cmax [2, 17]: 2530 ng/mL | AUC(0-t) [2, 18]: 50300 ng·h/mL | Cmax [2, 18]: 3480 ng/mL | AUC(0-t) [2, 19]: 43500 ng·h/mL | Cmax [2, 19]: 3300 ng/mL | half-life ([2]; po, dogs per os, read-out: half-life): 1460 to 1900 min | i.v. self-administration of THC ([3]; 15 µg kg^−1 oral): significantly reduced | % Inhibition ([3]; Self-administration of THC): 80% | ID50 ([3]; Self-administration of THC): 5 µg/kg | ID100 ([3]; Self-administration of THC): 15 µg/kg | THC's effects on social interaction [4]: inhibited | % Inhibition [4, 20]: 100% | ID50 [4, 20]: 5 µg/kg | ID100 [4, 20]: 15 µg/kg | ARCI 49 sub-scores ([5]; 0.2-6 mg vs placebo): No relevant trend | Bond and Lader VAS (alertness, contentedness, calmness) ([5]; 0.2-6 mg vs placebo): No clinically relevant differences | POMS 65 sub-scales ([5]; 0.2-6 mg vs placebo): No relevant trend | C-SSRS: number of subjects with suicidal ideation or behavior ([5]; all doses 0.2-6 mg, Day 1 and Day 2): 0 n (%) | interaction with major drug metabolic pathways (CYP and phase II enzymes) [6]: does not modify the activity of, nor is it notably metabolized by | AUC [7]: 41600 ng·h/mL | Cmax [7]: 4360 ng/mL | effect on equilibrium binding of [3H]CP55,940 [8]: does not modify
